Measured values from PubChem BioAssay AID179 (DTP/NCI, 2004).
The source made the active and inactive calls.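 The calls were made as follows: active = compounds giving half or more protection of infected cells from virus-caused growth loss, again on retest; inactive = the rest.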

System: CEM cells HIV-1 protection, formazan growth assay
Assay: NCI AIDS Antiviral Assay
Settings: for IC50: measured here: growth of uninfected CEM cells
Method in brief: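 Human CEM cells, uninfected and HIV-1-infected, received five drug concentrations, and growth was read by soluble formazan assay. Compounds giving at least 50% protection were retested; reproducible 100% protection defined confirmed active.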

| Compound | EC50 | IC50 | outcome |
| --- | --- | --- | --- |
| Cn1[nH]c2[nH]c(=S)sc(=S)c2c1=O | > 200 µM | > 200 µM | – |
| CC(C)CCCC(C)C1CCC2C3CC([N+](=O)[O-])=C4CC(O)CCC4(C)C3CCC12C (stereo unspecified) | > 575 µM | 251 µM | – |
| O=C1CCC23/C=C/C(=O)NCCCCNCCCNC(=O)/C=C/c4ccc(c2c4)OC3C1 (stereo unspecified) | > 148 µM | > 148 µM | – |
| Cc1cc(=O)[nH]c(CNC(=O)Cc2ccccc2)n1 | > 977 µM | > 977 µM | – |
| Cc1cc2c(cc1C)[n+](=O)c(C(=O)C/C(=N/OCCCc1ccccc1)C(=O)Nc1cc(Cl)ccc1Cl)c(C)n2[O-] | > 6.31 µM | > 6.31 µM | – |
| O=C1Nc2nc3ccccc3n2N=C2CCCC12 (stereo unspecified) | – | – | inactive |
| COC(=O)C(CCC(=O)O)N1C(=O)c2ccccc2C1=O (stereo unspecified) | > 200 µM | > 200 µM | – |
| CC(=O)OC1=C2CC3(C)OC(=O)CC(C)(C)C3=CC=C2C=C(C(C)C)C1=O (stereo unspecified) | – | – | inactive |
| N#C/C(=C\c1c(Cl)cccc1Cl)c1ccccc1 | > 50.1 µM | 28.8 µM | – |
| CCCCCCCCSC1OC(CO)C(O)C(O)C1O (stereo unspecified) | – | – | inactive |
| O=C(O)CCSCCCCCCCCCCCCSCCC(=O)O | > 91.2 µM | > 91.2 µM | – |
| O=C(O)c1ccccc1/C=C1/Cc2ccc3c(c2C1=O)CCC3 | – | – | inactive |
| Cc1nn(C(=O)c2c(O)cccc2Br)c(C)c1N=Nc1ccccc1 | – | – | inactive |
| Cc1cc(-c2ccccc2)nc(Nc2cc3ccccc3[nH]2)n1 | > 603 µM | > 603 µM | – |
| CC(=O)NC1C(=O)N(Cc2ccccc2)[C@@H]1COC(C)(C)C (stereo partly specified) | > 813 µM | > 813 µM | – |
| O=C(CN1CCN(c2ccccc2)CC1)N1CCc2c([nH]c3ccccc23)C1c1cccnc1 (stereo unspecified) | > 1.58 µM | > 1.58 µM | – |
| COc1cc(/C=C/C(=O)c2sc(-n3nc(-c4ccccc4)cc3-c3ccccc3)nc2C)ccc1O | > 14.5 µM | > 14.5 µM | – |
| CN(C)CCc1c2c(nc3ccccc13)C(=O)c1ccccc1C2=O | > 200 µM | 0.933 µM | – |
| c1ccc(Nc2nnc(CSc3nc(-c4ccccc4)c(-c4ccccc4)[nH]3)s2)cc1 | > 81.3 µM | 72.4 µM | – |
| CCOC(=O)C1=C(O)c2ccc(C)cc2C(=O)C1=O | > 955 µM | 324 µM | – |
| CCc1ccccc1N1C(=O)C(=O)C(c2nc3ccccc3s2)C(=O)C1=O | > 178 µM | 93.3 µM | – |
| Cc1cn(C2CC(Br)C(COC(c3ccccc3)(c3ccccc3)c3ccccc3)O2)c(=O)[nH]c1=O (stereo unspecified) | > 200 µM | 13.8 µM | – |
| O=C1C=C(N2CCCC2)c2cc(N3CCCC3)ncc2C1=O | – | – | inactive |

| Compound | EC50 | IC50 | outcome |
| --- | --- | --- | --- |
| CC1(C)CCCC2(C)C1CCC1(C)OC3=CC(=O)C(O)=CC3=CC12 (stereo unspecified) | > 30.2 µM | 2.82 µM | – |
| CC(C)(Br)C(=O)N1CCN(C(c2ccccc2)c2ccccc2)CC1 | > 25.1 µM | – | – |
| OCCOCCO[P+]1(OCCOCCO)n2c3ccc2C(c2ccccc2)=C2C=CC(=N2)C(c2ccccc2)=c2ccc(n21)=C(c1ccccc1)C1=NC(=C3c2ccccc2)C=C1 | > 100 µM | 0.0794 µM | – |
| Cc1cn(C2C=CC(CO)O2)c(=O)[nH]c1=O (stereo unspecified) | 1.62 µM | 186 µM | – |
| CC(=O)NNc1nc(C)c(C(=O)NNC(=O)C(=O)Nc2ccccc2C#N)s1 | > 89.1 µM | 51.3 µM | – |
| CC(=O)C(O)N1C(=O)C=CC1=O (stereo unspecified) | > 50.1 µM | 1.86 µM | – |
| COc1cc2c(cc1OC)CC(N=[N+]=[N-])c1cc(OC)c(OC)cc1/C=C\2 (stereo unspecified) | > 200 µM | 70.8 µM | – |
| N#C/C(=C\c1ccc(-c2ccccc2)cc1)c1ccccc1 | > 200 µM | 170 µM | – |
| CS(=O)(=O)C1S(=O)(=O)OCCOS1(=O)=O | > 891 µM | > 891 µM | – |
| CC(Oc1ccc(OCC2CCCCC2)cc1)C(=O)NCc1ccco1 (stereo unspecified) | > 28.2 µM | > 28.2 µM | – |
| COc1ccc(CCNC(=S)N/C=C\c2nc3ccccc3[nH]c2=O)cc1OC | – | – | inactive |
| CCOC(=O)c1c(-c2ccccc2)csc1N | > 123 µM | 107 µM | – |
| COc1ccc2nc3cc([N+](=O)[O-])ccc3c(NCCCCCN(C)C)c2c1 | > 2 µM | 0.138 µM | – |
| COc1ccc(/C(=N\N)C2=NNC3(CCCCC3)NN2)cc1 | – | – | inactive |
| O=C1c2ccccc2-c2cc3ccccc3c(=O)n21 | – | – | inactive |
| Cc1c([N+](=O)[O-])c(=O)oc2c(C)c3occc(=O)c3cc12 | > 6.92 µM | > 6.92 µM | – |
| COC(=O)C(/C(=N/N)C(=O)Nc1cccc(O)c1)c1nc2ccccc2[nH]c1=O (stereo unspecified) | > 34.7 µM | > 34.7 µM | – |
| CS(=O)(=O)O[C@H]1CN2C[C@@H](O)[C@@H](O)[C@H]2[C@H]1CO | > 200 µM | > 200 µM | – |
| CC1Oc2c(c(=O)oc3ccccc23)[C@@]1(C)CC1C[C@H](C)C(=O)O1 (stereo partly specified) | > 200 µM | 24.5 µM | – |
| S=c1nc(N2CCCCC2)ss1 | – | – | inactive |
| COc1ccc(-c2cc(=O)c3cc(Cl)cc(Cl)c3o2)cc1OC | > 100 µM | > 100 µM | – |
| CC1OC(c2ccccc2)=CC(OCc2ccccc2)[C@H]1OCc1ccccc1 (stereo partly specified) | > 200 µM | 91.2 µM | – |
| BrCCCCCOc1ccc(-c2c3ccccc3c(-c3ccc(OCCCCCBr)cc3)c3ccccc23)cc1 | > 100 µM | > 100 µM | – |

| Compound | EC50 | IC50 | outcome |
| --- | --- | --- | --- |
| O=C1NC2Cc3ccccc3C(C2)O1 (stereo unspecified) | > 200 µM | > 200 µM | – |
| S=C(N1CCN(c2cccc(Cl)c2)CC1)N1CCN(c2cccc(Cl)c2)CC1 | > 200 µM | 72.4 µM | – |
| CC1(C)OC(=O)C(Cc2ccccc2)(Cc2ccccc2)C(=O)O1 | – | – | inactive |
| N=C(N)c1csc([C@@H]2O[C@H](CO)[C@@H](O)[C@H]2O)n1 | – | – | inactive |
| CC1=NN(C(=O)CC(=O)N(C(=O)c2ccccc2)c2ccc(Cl)cc2)C(=O)C1N=Nc1ccc([N+](=O)[O-])cc1 (stereo unspecified) | 174 µM | > 200 µM | – |
| CCOC(=O)C1C(=O)CN2CCc3c([nH]c4ccccc34)C12C(=O)OCC (stereo unspecified) | > 257 µM | 162 µM | – |
| N#Cc1cc2ccccc2nc1SN | – | – | inactive |
| CN(C)CCCNC(=O)c1cc(NC(=O)c2cc(NC(=O)c3cc(NC(=O)c4ccc(C(=O)Nc5cc(C(=O)Nc6cc(C(=O)Nc7cc(C(=O)NCCCN(C)C)n(C)c7)n(C)c6)n(C)c5)nc4)cn3C)cn2C)cn1C | 5.37 µM | > 100 µM | – |
| N#Cc1nc(C2CCC(=O)O2)oc1N (stereo unspecified) | > 200 µM | > 200 µM | – |
| CCc1ccccc1N=NC(=O)NNc1ccccc1CC | > 200 µM | 70.8 µM | – |
| Cc1ccc(S(=O)(=O)NC(=O)NCCCSSCCCNC(=O)NS(=O)(=O)c2ccc(C)cc2)cc1 | > 200 µM | > 200 µM | – |
| Cc1ccc(/C=C/C(=O)c2sc(-n3nc(-c4ccccc4)cc3-c3ccccc3)nc2C)cc1 | > 11.2 µM | > 11.2 µM | – |
| CC(C)Sc1nc(C#N)cc2c1CCCC2 | > 200 µM | 57.5 µM | – |
| CCOC(=O)CC(C)P(c1ccccc1)C(C)CC(=O)OCC (stereo unspecified) | > 741 µM | > 741 µM | – |
| CC1C2CCC3(CCC4C5(C)CCCC4(CN(CCO)C5)C3C2)C1O (stereo unspecified) | – | – | inactive |
| CC(=O)NC1=NC(=O)/C(=C/c2ccc(/C=C3/C(=O)N=C(NC(C)=O)N3C)cc2)N1C | > 200 µM | 151 µM | – |
| CCOC(=O)/C(O)=C1\C(=O)N(C)C(=O)C1c1ccc(OC)c(OC)c1 (stereo unspecified) | – | – | inactive |
| Nc1ncn2c(n1)nc1ccccc12 | > 200 µM | > 200 µM | – |
| CCN(c1ccccc1)[C@H]1C(=O)N(c2ccc([N+](=O)[O-])cc2)[C@H]1c1ccc(OC)cc1 | – | – | inactive |
| O=C(O)C(=C\c1ccc2c(c1)OCO2)/C(=C/c1ccc2c(c1)OCO2)C(=O)O | – | – | inactive |
| COc1cc(-c2cc(-c3ccccc3)c3cc(Cl)ccc3n2)cc(OC)c1OC | > 200 µM | > 200 µM | – |
| Cn1c2cc(Cl)ccc2c2ccc3c(c21)C(=O)C=CC3=O | > 200 µM | 4.17 µM | – |
| C[Si]1(C)C(c2ccccc2)=CC2C(c3ccccc3)(c3ccccc3)OC21c1ccccc1 (stereo unspecified) | > 4.27 µM | 1.17 µM | – |

| Compound | EC50 | IC50 | outcome |
| --- | --- | --- | --- |
| O=C1NC(=O)C(c2ccccc2)O1 (stereo unspecified) | > 1410 µM | 447 µM | – |
| CCOC(=O)[C@H]1C[C@H]2O[C@H]2C[C@@H]1C | – | – | inactive |
| CCOc1ncn(-c2ccc(NC(=S)Nc3ncccn3)cc2)n1 | > 200 µM | 95.5 µM | – |
| O=C1C=Cc2ncccc2C1=O | > 1580 µM | 5.5 µM | – |
| COc1cc(SSc2cc(OC)cc([N+](=O)[O-])c2N)c(N)c([N+](=O)[O-])c1 | 4.47 µM | 15.5 µM | – |
| CCCCCn1cnc2c(=S)nc(N)[nH]c21 | > 200 µM | 195 µM | – |
| O=[N+]([O-])c1ccc(C2=Nc3ccccc3SC(c3ccccc3)C2)cc1 (stereo unspecified) | > 27.5 µM | > 27.5 µM | – |
| OCc1cc2c(cn1)[nH]c1ccc(NCc3ccccc3)cc12 | – | – | inactive |
| COC(=O)/C(C#N)=C1\CCc2ccccc21 | > 1170 µM | > 1170 µM | – |
| Nc1nc(Cl)c(N=Nc2ccc(Cl)cc2)c(NCC2(CO)CC2)n1 | > 200 µM | > 200 µM | – |
| S=C1CC(c2ccccc2)Sc2ccc(Cl)cc2N1 (stereo unspecified) | > 200 µM | 34.7 µM | – |
| CC1=C(C(=O)NC(C)(C)C)CC(C(=O)NC(C)(C)C)C(C)N1 (stereo unspecified) | > 200 µM | > 200 µM | – |
| CCOC(=O)c1cn(-c2ccc([N+](=O)[O-])cc2)c(=S)n2c1nc1ccccc12 | > 200 µM | 9.33 µM | – |
| CC(=O)OCc1cncn1S(=O)(=O)c1ccc(C)cc1 | > 200 µM | 22.9 µM | – |
| C=CCN=C1NC(=O)C(CC(=O)Nc2cccc(Cl)c2)S1 (stereo unspecified) | > 288 µM | > 288 µM | – |
| O=C(Nc1ccc(F)cc1)N(C1CCCCC1)C1CCCCC1 | > 200 µM | 81.3 µM | – |
| COc1nc2c(nc(N)n2C2OCC(O)C(O)C2O)c(=O)n1C (stereo unspecified) | – | – | inactive |
| O=[N+]([O-])c1nccn1CC(O)CO (stereo unspecified) | > 661 µM | > 661 µM | – |
| C=CCNC(=S)N/C=C(\C#N)C(N)=O | > 200 µM | > 200 µM | – |
| Cc1ccc(Nc2nc(C)c(C(=O)C/C(=N/NC(N)=S)C(=O)Nc3cc(Cl)cc(Cl)c3)s2)cc1 | > 200 µM | 178 µM | – |
| Cn1c(N)c(C(N)=O)[nH]c1=S | > 200 µM | > 200 µM | – |
| COC(=O)N1C=NC2C3(C)C(C)=C(C)C3(C)C21C (stereo unspecified) | > 263 µM | 151 µM | – |
